Data on two compounds can be found in patent US6348460B1 (priority 1997, dated 2002).

By melting point is commonly meant the temperature of the solid-liquid transition. Regarding `Cc1nnsc1C(=O)NS(C)(=O)=O`, the melting point came out at 165 °C.

Consider `Cc1ccc(N(SN2CCOCC2)C(=O)c2snnc2C)cc1` [b183, 4-methyl-N-(4-methylphenyl)-N-morpholinothio-1,2,3-thiadiazole-5-carboxamide], for which the melting point is 60 °C (dec.).
